According to patent publication EP2348038A1, “Method for determining the activity of transglutaminase factor XIIIa” (PHILIPPS-UNIVERSITÄT MARBURG, priority 2010, dated 2011):
One block for each compound: values may come before it. Peptide text beside a SMILES is read from it. * marks the point of attachment. pNA = O=[N+]([O-])c1ccc(N*)cc1; Cbz = O=C(OCc1ccccc1)*

Legend:
Assay type in all cases: biochemical
Faktor XIIIa [1] = target: T1, Faktor XIIIa (Homo sapiens, UniProt P00488); assay: Cleavage of pNA substrates by activated factor XIIIa, absorbance at 405 nm (Michaelis-Menten kinetics and pre-test); conditions: for Substratspaltung (Vortest): pre-test at constant substrate concentration, 405 nm; for Substratspaltung (Vortest) / Vmax: 37 °C; for Vmax: change of absorbance at 405 nm per s, enzyme ca. 1,25 Einheiten/ml
T1 construct: Aktivierung des Zymogens FXIII zu Faktor XIIIa; purchased Aventis Behring Fibrogammin HS
T1 sequence (P00488 39-732 limits assumed): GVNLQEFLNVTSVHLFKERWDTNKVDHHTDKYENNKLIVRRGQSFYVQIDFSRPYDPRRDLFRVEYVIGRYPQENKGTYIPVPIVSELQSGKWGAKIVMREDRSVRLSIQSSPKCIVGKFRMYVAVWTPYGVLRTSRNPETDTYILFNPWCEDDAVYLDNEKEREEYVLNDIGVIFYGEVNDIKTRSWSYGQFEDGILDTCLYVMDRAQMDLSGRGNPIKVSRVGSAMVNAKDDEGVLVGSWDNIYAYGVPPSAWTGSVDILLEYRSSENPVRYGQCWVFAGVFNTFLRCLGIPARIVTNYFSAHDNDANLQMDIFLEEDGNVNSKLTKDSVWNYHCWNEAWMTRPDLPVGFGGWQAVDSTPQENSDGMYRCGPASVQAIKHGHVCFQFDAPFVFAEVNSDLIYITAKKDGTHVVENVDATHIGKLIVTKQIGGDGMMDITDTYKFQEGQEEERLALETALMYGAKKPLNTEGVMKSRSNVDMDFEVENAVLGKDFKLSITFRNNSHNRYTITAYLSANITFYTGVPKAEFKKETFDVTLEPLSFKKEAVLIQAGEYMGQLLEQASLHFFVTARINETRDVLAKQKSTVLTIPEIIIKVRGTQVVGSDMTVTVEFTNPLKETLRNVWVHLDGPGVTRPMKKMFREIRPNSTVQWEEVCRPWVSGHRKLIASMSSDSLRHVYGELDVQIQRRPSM
Procedure: 250 Einheiten lyophilisiertes Fibrogammin HS (Aventis Behring) wurden in 4 ml Wasser gelöst, als 100 µl Portionen aliquotiert und bei -80 °C gelagert. 100 µl dieser Lösung enthalten 6,25 Einheiten FXIII.
100 µl des aliqotierten Fibrogammins (entspricht 6,25 Einheiten) wurden mit 500 µl TBS-Puffer (50 mM Tris-HCl, pH 7,5 in 0,9% (w/v) NaCl), 360 µl einer 0.9 % NaCl-Lösung, 10 µl einer 1 M CaCl2-Lösung und 20 µl einer Thrombinlösung (Rinderthrombin: 14,2 U in 20 µl) versetzt. Der Ansatz wurde 20 min bei 37 °C inkubiert, danach wurden 10 µl einer Lösung mit rekombinantem Hirudin zugesetzt (r-Hirudin: HBW 023 mit 13442 IU mg^-1, Stammlösung des r-Hirudin = 1 mg/ml). Dieser Aktivierungsansatz besitzt ein Gesamtvolumen von 1 ml, der aktivierte Faktor Xllla wurde bei 37 °C aufbewahrt und für die folgenden kinetischen Messungen verwendet.
Die Messungen wurden bei 405 nm und 37 °C mit einem Microplate Reader der Firma Labsystems (iEMS Reader MF) mit folgendem Messansatz durchgeführt: • 150 µl TBS-Puffer (siehe oben, der Puffer kann gegebenenfalls auch eine Aminkomponente enthalten, beispielsweise H-Gly-Ethylester oder H-Gly-Gly-Ethylester oder ein anderes Amin, falls vorhanden ist die finale Konzentration des Amins im Messansatz 2,5 mM oder höher) • 50 µl Substratlösung • 50 µl Enzymlösung (im Messansatz ca. 1,25 Einheiten/ml)
Sämtliche Lösungen wurden vor Benutzung bei 37 °C aufbewahrt, vor Zugabe der FXllla-Lösung wurde die Mikroreadermessplatte nochmals 5 min bei 37 °C im Messgerät temperiert. Nach Zugabe der FXllla-Lösung wurde die Substratspaltung gestartet und die Änderung der Absorption bei 405 nm gemessen. Für einen Vortest wurde eine konstante Substratkonzentration verwendet. […] Wir haben vermutet, dass vor allem die Aminosäuren N- und C-terminal des Glu(pNA)-Restes wichtig für die Substraterkennung sind, deshalb wurde das N-terminale Glycin und das an dritter Position befindliche Serin innerhalb der Berichromsequenz durch andere Aminosäurereste ersetzt. Durch den Vortest wurde festgestellt, dass einige dieser Substrate deutlich schneller als die Derivate S1 und S2 gespalten werden. Für ausgewählte Substrate wurden die Substratkonzentrationen im Messansatz variiert und die bestimmten Umsatzgeschwindigkeiten als Funktion der Substratkonzentration entsprechend der Michaelis-Menten-Gleichung v=Vmax·[S]/(Km+[S]) aufgetragen und somit die kinetischen Konstanten Km und Vmax bestimmt, wobei Vmax in der Einheit Absorptionsänderung bei 405 nm/s erhalten wurde. Dies ist in Fig. 1 und Fig. 2 gezeigt.

Faktor XIIIa [2] = target: T1, Faktor XIIIa; assay: Cleavage of AMC substrates by activated factor XIIIa, fluorescence plate reader (Michaelis-Menten kinetics); conditions: λEX = 380 nm, λEm = 460 nm, room temperature, enzyme ca. 0,893 Einheiten/ml
Procedure: Die Aliquotierung des Zymogens Faktor XIII und Aktivierung des Zymogens FXIII zu Faktor XIIIa erfolgten analog der in Beispiel 3 beschriebenen Prozedur.
Sämtliche Lösungen wurden bei Raumtemperatur aufbewahrt. Die Bestimmung der Spaltung der AMC-Substrate durch FXllla wurde mit einem Fluoreszenz-Plattenreader Safire^2 der Firma Tecan (λEX = 380 nm, λEm = 460 nm) bei Raumtemperatur durchgeführt. • 100 µl TBS-Puffer (siehe oben, der Puffer kann gegebenenfalls auch eine Aminkomponente enthalten, beispielsweise H-Gly-Ethylester oder H-Gly-Gly-Ethylester oder ein anderes Amin) • 50 µl Substratlösung • 25 µl Enzymlösung (im Messansatz ca. 0,893 Einheiten/ml)
Die Michaelis-Menten-Auftragung für die AMC-enthaltenden Substrate ist in Fig. 3 gezeigt.

FXllla = target: T2, FXllla (Homo sapiens, UniProt P00488); assay: Initial experiments: cleavage by FXIIIa of Glu(pNA) peptides derived from the Berichrom substrate sequence
T2 sequence (P00488 39-732 limits assumed): T1 sequence (P00488 39-732 limits assumed)

FXIIIa = assay: Initial cleavage tests of Glu(pNA)/Glu(AMC) derivatives with FXIIIa (background section); conditions: release of pNA or AMC; no conditions given
Excerpt: Nach derzeitigem Wissen existieren neben FXIII bzw. FXllla im Körper derzeit noch 8 weitere Transglutaminasen, dazu zählen TG1-TG7 sowie das Protein epb42, dass allerdings katalytisch unwirksam ist (Wodzinska, Mini Rev. in Med. Chem. 5 (2005) 279-292). Als erste Transglutaminase wurde das inzwischen als TG2 bezeichnete Enzym entdeckt. Dessen Aktivität lässt sich sehr einfach durch UV/VIS-spektroskopische oder fluorimetrische Messungen unter Verwendung simpler Aminosäurederiate nachweisen, beispielsweise durch Abspaltung von p-Nitroanlin aus H-Glu(pNA)-OH oder durch Abspaltung von Aminomethylcoumarin aus H-Glu(AMC)-OH (Smith et al., Anal. Biochem. 100 (1979) 136-139). […] Bisher wurden auch noch keine Peptidderivate beschrieben, die einen Glu(pNA) oder Glu(AMC)-Rest besitzen und gleichzeitig mit ausreichender Effektivität von FXllla unter Freisetzung von pNA oder AMC umgesetzt werden.

- Substratspaltung (Vortest) (Faktor XIIIa [1]): praktisch kaum gespalten
Compound: CC(C)C[C@H](NC(=O)[C@@H]1CCCN1C(=O)[C@H](CO)NC(=O)[C@@H](NC(=O)[C@H](CC(N)=O)NC(=O)[C@H](CCC(=O)O)NC(=O)[C@H](CCC(=O)Nc1ccc([N+](=O)[O-])cc1)NC(=O)[C@@H](N)CC(N)=O)C(C)C)C(N)=O [Substrat S1, H-Asn-Glu(pNA)-Glu-Asn-Val-Ser-Pro-Leu-NH2] (H-NE(pNA)ENVSPL-NH2)

Compound: CC[C@H](C)[C@H](NC(=O)[C@@H](NC(=O)[C@H](CCCCN)NC(=O)[C@@H](NC(=O)[C@H](CCC(=O)Nc1ccc([N+](=O)[O-])cc1)NC(=O)[C@@H](N)Cc1ccc(O)cc1)C(C)C)C(C)C)C(N)=O [Substrat S12, H-Tyr-Glu(pNA)-Val-Lys-Val-Ile-NH2] (H-YE(pNA)VKVI-NH2)
- Vmax (Faktor XIIIa [1]; pNA substrates): 1.33 × 10^-4 dOD/s

- Substratspaltung (Vortest) (Faktor XIIIa [1]): nur langsam umgesetzt
Compound: CC[C@H](C)[C@H](NC(=O)[C@@H](NC(=O)[C@H](CCCCN)NC(=O)[C@H](CO)NC(=O)[C@H](CCC(=O)Nc1ccc([N+](=O)[O-])cc1)NC(=O)CN)C(C)C)C(=O)NCC(N)=O [Substrat S2, H-Gly-Glu(pNA)-Ser-Lys-Val-Ile-Gly-NH2] (H-GE(pNA)SKVIG-NH2)

- Vmax (Faktor XIIIa [2]): 11,99 dRFU/s
Compound: CC[C@H](C)[C@H](NC(=O)[C@@H](NC(=O)[C@H](CCCCN)NC(=O)[C@H](CCCCNC(=O)OCc1ccccc1)NC(=O)[C@H](CCC(=O)Nc1ccc([N+](=O)[O-])cc1)NC(=O)[C@@H](N)Cc1c[nH]cn1)C(C)C)C(=O)NCC(N)=O [Substrat S19, H-His-Glu(pNA)-Lys(Z)-Lys-Val-Ile-Gly-NH2] (H-HE(pNA)K(Cbz)KVIG-NH2)

Compound: CC[C@H](C)[C@H](NC(=O)[C@@H](NC(=O)[C@H](CCCCN)NC(=O)[C@H](CO)NC(=O)[C@@H](N)CCC(=O)Nc1ccc([N+](=O)[O-])cc1)C(C)C)C(=O)NCC(N)=O [H-Glu(pNA)-Ser-Lys-Val-Ile-Gly-NH2] (H-E(pNA)SKVIG-NH2)
- Spaltung durch FXllla (FXllla): fast gar nicht oder nur sehr langsam gepalten

Compound: CC[C@H](C)[C@H](NC(=O)[C@@H](NC(=O)[C@H](CCCCN)NC(=O)[C@H](CO)NC(=O)[C@H](CCC(=O)Nc1ccc([N+](=O)[O-])cc1)NC(=O)CNC(=O)[C@@H]1CCCN1C(=O)CN)C(C)C)C(=O)NCC(N)=O [H-Gly-Pro-Gly-Glu(pNA)-Ser-Lys-Val-Ile-Gly-NH2] (H-GPGE(pNA)SKVIG-NH2)
- Spaltung durch FXllla (FXllla): fast gar nicht oder nur sehr langsam gepalten

- Spaltung durch FXllla (FXllla): nur sehr langsam von FXllla gepalten
Compound: CC[C@H](C)[C@H](NC(=O)[C@@H](NC(=O)[C@H](CCCCN)NC(=O)[C@H](CO)NC(=O)[C@H](CCC(=O)Nc1ccc([N+](=O)[O-])cc1)NC(=O)CNC(=O)[C@@H]1CCCN1C(=O)CNC(=O)[C@@H](N)CC(C)C)C(C)C)C(=O)NCC(N)=O [H-Leu-Gly-Pro-Gly-Glu(pNA)-Ser-Lys-Val-Ile-Gly-NH2] (H-LGPGE(pNA)SKVIG-NH2)

Compound: Cc1cc(=O)oc2cc(NC(=O)CC[C@H](N)C(=O)O)ccc12 [H-Glu(AMC)-OH]
- Spaltung durch FXIIIa (FXIIIa): nicht gespalten

Compound: CC[C@H](C)[C@H](NC(=O)[C@@H](NC(=O)[C@H](CCCCN)NC(=O)[C@H](CO)NC(=O)[C@H](CCC(=O)Nc1ccc([N+](=O)[O-])cc1)NC(=O)CNC(=O)[C@@H]1CCCN1)C(C)C)C(=O)NCC(N)=O [H-Pro-Gly-Glu(pNA)-Ser-Lys-Val-Ile-Gly-NH2] (H-PGE(pNA)SKVIG-NH2)
- Spaltung durch FXllla (FXllla): fast gar nicht oder nur sehr langsam gepalten

Compound: CC[C@H](C)[C@H](NC(=O)[C@@H](NC(=O)[C@H](CCCCN)NC(=O)[C@@H](NC(=O)[C@H](CCC(=O)Nc1ccc([N+](=O)[O-])cc1)NC(=O)[C@@H](N)Cc1ccc(O)cc1)C(C)C)C(C)C)C(=O)NCC(N)=O [Substrat S10, H-Tyr-Glu(pNA)-Val-Lys-Val-Ile-Gly-NH2] (H-YE(pNA)VKVIG-NH2)
- Vmax (Faktor XIIIa [1]; pNA substrates): 0,95 × 10^-4 dOD/s

- Vmax (Faktor XIIIa [2]): 9,61 dRFU/s
Compound: CC[C@H](C)[C@H](NC(=O)[C@@H](NC(=O)[C@H](CCCCN)NC(=O)[C@@H](NC(=O)[C@H](CCC(=O)Nc1ccc([N+](=O)[O-])cc1)NC(=O)[C@@H](N)CCCCN)C(C)C)C(C)C)C(=O)NCC(N)=O [Substrat S18, H-Lys-Glu(pNA)-Val-Lys-Val-Ile-Gly-NH2] (H-KE(pNA)VKVIG-NH2)

Compound: CC[C@H](C)[C@H](NC(=O)[C@@H](NC(=O)[C@H](CCCNC(=N)N)NC(=O)[C@@H](NC(=O)[C@H](CCC(=O)Nc1ccc([N+](=O)[O-])cc1)NC(=O)[C@@H](N)Cc1ccc(O)cc1)C(C)C)C(C)C)C(=O)NCC(N)=O [Substrat S16, H-Tyr-Glu(pNA)-Val-Arg-Val-Ile-Gly-NH2] (H-YE(pNA)VRVIG-NH2)
- Eignung als Substrat (Faktor XIIIa [1]; pNA substrates, see Fig. 2): geeignete Substrate
- Vmax (Faktor XIIIa [1]; pNA substrates): 0,8 × 10^-4 dOD/s

Compound: N[C@@H](CCC(=O)Nc1ccc([N+](=O)[O-])cc1)C(=O)O [H-Glu(pNA)-OH]
- Spaltung durch FXIIIa (FXIIIa): nicht gespalten

Compound: CC[C@H](C)[C@H](NC(=O)[C@@H](NC(=O)[C@H](CCCCN)NC(=O)[C@H](CO)NC(=O)[C@H](CCC(=O)Nc1ccc([N+](=O)[O-])cc1)NC(C)=O)C(C)C)C(=O)NCC(N)=O [Ac-Glu(pNA)-Ser-Lys-Val-Ile-Gly-NH2] (Ac-E(pNA)SKVIG-NH2)
- Spaltung durch FXllla (FXllla): fast gar nicht oder nur sehr langsam gepalten
